What was measured:
[1] = system: MM32 indicator strain (LuxS−, LuxN−) of V. harveyi; experiment: MM32 bioluminescence assay; assay type: cell-based, Vibrio harveyi; settings: various doses, 6-hour incubation
Method: The MM32 indicator strain (LuxS−, LuxN−) of V. harveyi was incubated with various doses of AI-2 and the bioluminescence signal measured at various time points during a 6-hour incubation.
Exogenous synthetic autoinducer-2 was added at the outset of the assay at a final concentration of 25 μg/ml. QXP-048 was added at the outset of the assay at a final concentration of 25 μg/ml. […] Exogeneous synthetic autoinducer-2 was added at the outset of the assay to a final concentration of 25 μg/ml. QXP-048 was added at the outset of the assay at a final concentration of 25 μg/ml.
The invention provides a luxN− and luxS− strain of V. harveyi, designated MM32, for identifying inhibitors of the quorum-sensing pathway. […] Further, since MM32 cannot produce AI-2, addition of exogenous AI-2 or its analogs allows rapid identification of inhibitors of AI-2.

[2] = system: Pseudomonas aeruginosa (ATCC 27853); experiment: Microtiter crystal violet biofilm formation assay; assay type: cell-based; settings: AB media with glucose; pH-dependent
Method: (§1) Biofilm formation was measured using a microtiter-based assay. Free-swimming (planktonic) bacteria were cultured in AB or LB media supplemented with glucose in 96 well microtiter dishes. Biofilms typically formed along the walls of the wells at the interface of the liquid and air phase. At the end of the incubation, aliquots of a crystal violet solution (stock 0.1%) were added to the wells to stain both the adherent and the non-adherent cells. The wells were then washed with deionized water to remove non-adherent cells, and the bound crystal violet solubilized with 200 microliters of water. Absorbance reading at 600 nm (A600) were used to quantitate the amount of crystal violet dye that had adhered to the biofilms. When indicated, synthetic AI-2 was added to the wells at the beginning of the cultures.
The effects of AI-2 on biofilm formation were also evaluated in Pseudomonas aeruginosa (ATCC 27853)(FIG. 27). Biofilm formation by this organism is of particular interest because of the association of Pseudomonas aeruginosa biofilms with decreased lung capacity in subjects with cystic fibrosis.

[3] = Characterization of AI-2 activity: acid, base and heat stability; assay type: physicochemical
[4] = system: V. harveyi strains MM32, BB120, BB170; experiment: Microtiter crystal violet biofilm formation assay; assay type: cell-based, Vibrio harveyi
Method: as §1
Various amounts of synthetic AI-2 were added to the initial free-swimming bacterial cultures in LB media supplemented with glucose, and biofilm formation measured at the end of the incubation.

SdiA = experiment: Effect of autoinducer on SdiA regulated gene expression (rck::MudJ fusion, β-galactosidase); assay type: cell-based; settings: AI-2 from E. coli or S. typhimurium, 0.4 M NaCl osmotic shock fluids at 10% (v/v)
Source text: It was possible that the AI-2 autoinducer that we have been characterizing in S. typhimurium and E. coli acted through SdiA. […] In E. coli, we assayed an ftsQ1p2p-lacZ reporter, and in S. typhimurium we assayed an rck::MudJ fusion in both an sdiA^+ and sdiA^− background. We tested the effects of addition of LB, 0.4 M NaCl, 0.4 M NaCl osmotic shock fluids containing AI-2 activity from S. typhimurium LT2, E. coli O157, and 0.4 M NaCl osmotic shock fluid from E. coli DH5α.
For ftsQ regulation in E. coli, the plasmids pMS207 and pMS209 were transformed into E. coli strain MC4100 (Silhavy et al., 1984, supra), and the transformants were grown overnight in LB containing 100 mg/L ampicillin at 30° C. with aeration. For rck regulation, S. typhimurium strains BA1105 (rck::MudJ) and BA1305 (rck::MudJ sdiA) were grown overnight in LB containing 100 mg/L kanamycin at 30° C. with aeration. The overnight cultures were diluted 20-fold into fresh medium and grown for an additional 4.5 h. At this time, each culture was divided into five identical aliquots and 10% (v/v) of one of the following was added to each aliquot: LB, 0.4M NaCl, 0.4M osmotic shock fluids from S. typhimurium LT2, E. coli O157 or E. coli strain DH5α (negative control). The osmotic shock fluids were prepared as described above, following pre-growth of the S. typhimurium LT2 and E. coli in LB containing 0.5% glucose for 6 h. […]

CC1=C(O)C(=O)CO1 [AI-2, 4-hydroxy-5-methyl-2h-furan-3-one]
bioluminescence signal [1]: induction of bioluminescence
biofilm formation [2]: dose-dependent increase in the level of biofilm formation
stability of activity to acid [3]: acid-stable
stability of activity to base [3]: base-labile
temperature of heating withstood by the activity ([3]; but not 100° C.): about 80 °C
biofilm formation ([4]; MM32 strain, low doses, LB media with glucose): block biofilm formation
biofilm formation ([4]; higher concentrations, all V. harveyi strains tested): stimulated biofilm formation
biofilm formation ([4]; indicator strain BB170, low doses, LB media with glucose): increases the extent of biofilm that forms
biofilm production after addition to the medium ([4]; null mutant (AI-1−/AI-2−) V. harveyi): allows (AI-1−/AI-2−) V. harveyi to produce biofilm
biofilm formation ([4]; wild-type strain BB120, low doses, LB media with glucose): increases the extent of biofilm that forms
change in β-galactosidase production (SdiA): No change

— patent US7666619B2, “Compounds and methods for regulating bacterial growth and pathogenesis” (Princeton University, priority 2000, dated 2010)
